Laboratory results taken from patent US8563730B2, “Pyrazole and fused pyrazole glucokinase activators” (Takeda San Diego, Inc., priority 2008, dated 2013).
Where “and” joins values, the source holds several entries; their conditions need not be identical. Equal values may be shown once. Read-outs that look alike come from different tables or passages of the source.

Biological target: T1, GK (glucokinase, residues 12-465) (Homo sapiens, UniProt P35557)
T1 construct: I.D. No. 1 corresponds to residues 12-465 of glucokinase; made in house; host or cells: DH10b-T1r E. coli
T1 sequence (P35557 with tags, fused parts or gaps isoform P35557-2): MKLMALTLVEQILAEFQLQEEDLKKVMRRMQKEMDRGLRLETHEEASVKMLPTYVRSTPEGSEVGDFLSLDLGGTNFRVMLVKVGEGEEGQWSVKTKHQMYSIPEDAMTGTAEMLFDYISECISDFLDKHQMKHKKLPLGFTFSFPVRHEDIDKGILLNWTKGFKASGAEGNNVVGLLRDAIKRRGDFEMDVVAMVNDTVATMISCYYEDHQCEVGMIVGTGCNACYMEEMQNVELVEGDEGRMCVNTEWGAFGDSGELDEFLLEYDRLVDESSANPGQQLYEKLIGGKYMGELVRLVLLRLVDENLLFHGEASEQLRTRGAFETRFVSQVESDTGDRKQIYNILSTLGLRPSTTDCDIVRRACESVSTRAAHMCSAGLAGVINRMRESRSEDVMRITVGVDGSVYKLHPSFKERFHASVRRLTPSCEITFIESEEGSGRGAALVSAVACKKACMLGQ
Assay: enzymatic glucokinase activity assay (ATP consumption, KinaseGlo luminescence)
Assay type: biochemical
Conditions: 5 μM ATP, 5 mM Glucose, reported as bins; for EC50: Kact = concentration that displays 50% of the maximal increase in GK activity, 60 min, room temperature, read-out: pKact
In short: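 E. coli-expressed recombinant GK purified by two anion-exchange steps. Reaction in 25 mM Hepes pH 7.2, 10 mM MgCl2, 1 mM DTT, 5 μM ATP, 5 mM glucose, 2% DMSO, 60 min at room temperature. ATP consumption quantified by KinaseGlo luminescence; pKact and % ACTmax derived by non-linear curve fitting.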

[1] = calculated maximal gain in GK enzyme activity at a saturating concentration of the compound, read-out: % ACTmax
[2] = read-out: % ACTmax, calculated maximal gain in GK enzyme activity at a saturating concentration of the compound

Structure (SMILES)	EC50	Emax [1] [%]	Emax [2] [%]
O=C(Nc1ncc(F)cc1F)C(CC1CCOCC1)n1ncc2c(S(=O)(=O)C3CC3)cccc21 (stereo not shown) [Compound 88, 2-(4-(cyclopropylsulfonyl)-1H-indazol-1-yl)-N-(3,5-difluoropyridin-2-yl)-3-(tetrahydro-2H-pyran-4-yl)propanamide]	≥ 15800 nM	≤ 90	
O=C(Nc1cnccn1)[C@H](CC1CCOCC1)n1ncc2c(S(=O)(=O)C3CC3)cccc21 [Compound 89, (S)-2-(4-(cyclopropylsulfonyl)-1H-indazol-1-yl)-N-(pyrazin-2-yl)-3-(tetrahydro-2H-pyran-4-yl)propanamide]	1580 to 3160 nM	101 to 105	
O=C(Nc1cnccn1)[C@@H](CC1CCOCC1)n1ncc2c(S(=O)(=O)C3CC3)cccc21 [Compound 90, (R)-2-(4-(cyclopropylsulfonyl)-1H-indazol-1-yl)-N-(pyrazin-2-yl)-3-(tetrahydro-2H-pyran-4-yl)propanamide]	≥ 15800 nM	90 to 100	
COc1ccc2c(cnn2C(CC2CCOCC2)C(=O)Nc2cnccn2)c1S(=O)(=O)C1CC1 (stereo not shown) [Compound 91, 2-(4-(cyclopropylsulfonyl)-5-methoxy-1H-indazol-1-yl)-N-(pyrazin-2-yl)-3-(tetrahydro-2H-pyran-4-yl)propanamide]	398 to 1260 nM	101 to 105	
COc1cc(S(=O)(=O)C2CC2)c2cnn(C(CC3CCOCC3)C(=O)Nc3cnccn3)c2c1 (stereo not shown) [Compound 92, 2-(4-(cyclopropylsulfonyl)-6-methoxy-1H-indazol-1-yl)-N-(pyrazin-2-yl)-3-(tetrahydro-2H-pyran-4-yl)propanamide]	3980 to 12600 nM	≤ 90	
COc1ccc2c(cnn2[C@H](CC2CCOCC2)C(=O)Nc2cnccn2)c1S(=O)(=O)C1CC1 [Compound 93, (R)-2-(4-(cyclopropylsulfonyl)-5-methoxy-1H-indazol-1-yl)-N-(pyrazin-2-yl)-3-(tetrahydro-2H-pyran-4-yl)propanamide]	≥ 15800 nM	≤ 90	
COc1ccc2c(cnn2[C@@H](CC2CCOCC2)C(=O)Nc2cnccn2)c1S(=O)(=O)C1CC1 [Compound 94, (S)-2-(4-(cyclopropylsulfonyl)-5-methoxy-1H-indazol-1-yl)-N-(pyrazin-2-yl)-3-(tetrahydro-2H-pyran-4-yl)propanamide]	≤ 316 nM	90 to 100	
Cn1ccc(NC(=O)C(CC2CCOCC2)n2ncc3c(S(=O)(=O)C4CC4)ccnc32)n1 (stereo not shown) [Compound 95, 2-(4-(cyclopropylsulfonyl)-1H-pyrazolo[3,4-b]pyridin-1-yl)-N-(1-methyl-1H-pyrazol-3-yl)-3-(tetrahydro-2H-pyran-4-yl)propanamide]	1580 to 3160 nM	101 to 105	
Nc1cc(S(=O)(=O)C2CC2)c2cnn(C(CC3CCOCC3)C(=O)Nc3cnccn3)c2n1 (stereo not shown) [Compound 96, 2-(6-amino-4-(cyclopropylsulfonyl)-1H-pyrazolo[3,4-b]pyridin-1-yl)-N-(pyrazin-2-yl)-3-(tetrahydro-2H-pyran-4-yl)propanamide]	398 to 1260 nM	101 to 105	
O=C(Nc1cnccn1)C(CC1CCOCC1)n1ncc2c(S(=O)(=O)C3CC3)ccnc21 (stereo not shown) [Compound 97, 2-(4-(cyclopropylsulfonyl)-1H-pyrazolo[3,4-b]pyridin-1-yl)-N-(pyrazin-2-yl)-3-(tetrahydro-2H-pyran-4-yl)propanamide]	398 to 1260 nM	106 to 110	
NC(=O)c1ccc(NC(=O)[C@H](CC2CCOCC2)n2ncc3c(S(=O)(=O)C4CC4)cccc32)nc1 [Compound 107, (S)-6-(2-(4-(cyclopropylsulfonyl)-1H-indazol-1-yl)-3-(tetrahydro-2H-pyran-4-yl)propanamido)nicotinamide]	≤ 316 nM		≥ 111
NC(=O)c1ccc(NC(=O)[C@@H](CC2CCOCC2)n2ncc3c(S(=O)(=O)C4CC4)cccc32)nc1 [Compound 108, (R)-6-(2-(4-(cyclopropylsulfonyl)-1H-indazol-1-yl)-3-(tetrahydro-2H-pyran-4-yl)propanamido)nicotinamide]	3980 to 12600 nM		≥ 111
Nc1cc(S(=O)(=O)C2CC2)c2cnn([C@H](CC3CCOCC3)C(=O)Nc3ncc(F)s3)c2n1 [Compound 111, (R)-2-(6-amino-4-(cyclopropylsulfonyl)-1H-pyrazol[3,4-b]pyridin-1-yl)-N-(5-fluorothiazol-2-yl)-3-(tetrahydro-2H-pyran-4-yl)propanamide]	398 to 1260 nM		106 to 110
Nc1cc(S(=O)(=O)C2CC2)c2cnn([C@@H](CC3CCOCC3)C(=O)Nc3ncc(F)s3)c2n1 [Compound 112, (S)-2-(6-amino-4-(cyclopropylsulfonyl)-1H-pyrazol[3,4-b]pyridin-1-yl)-N-(5-fluorothiazol-2-yl)-3-(tetrahydro-2H-pyran-4-yl)propanamide]	≤ 316 nM		106 to 110

The next lines start with results.

EC50	Emax [1] [%]	Structure (SMILES)	Emax [2] [%]
398 to 1260 nM	90 to 100	Cn1ccc(NC(=O)[C@H](CC2CCOCC2)n2ncc3c(S(=O)(=O)C4CC4)ccnc32)n1 [Compound 98, (S)-2-(4-(cyclopropylsulfonyl)-1H-pyrazolo[3,4-b]pyridin-1-yl)-N-(1-methyl-1H-pyrazol-3-yl)-3-(tetrahydro-2H-pyran-4-yl)propanamide]	
3980 to 12600 nM	90 to 100	Cn1ccc(NC(=O)[C@@H](CC2CCOCC2)n2ncc3c(S(=O)(=O)C4CC4)ccnc32)n1 [Compound 99, (R)-2-(4-(cyclopropylsulfonyl)-1H-pyrazolo[3,4-b]pyridin-1-yl)-N-(1-methyl-1H-pyrazol-3-yl)-3-(tetrahydro-2H-pyran-4-yl)propanamide]	
398 to 1260 nM	≤ 90	N#Cc1cc(S(=O)(=O)C2CC2)c2cnn(C(CC3CCOCC3)C(=O)Nc3cnccn3)c2c1 (stereo not shown) [Compound 100, 2-(6-cyano-4-(cyclopropylsulfonyl)-1H-indazol-1-yl)-N-(pyrazin-2-yl)-3-(tetrahydro-2H-pyran-4-yl)propanamide]	
398 to 1260 nM	90 to 100	Cn1ccc(NC(=O)C(CC2CCOCC2)n2ncc3c(S(=O)(=O)C4CC4)cc(Cl)cc32)n1 (stereo not shown) [Compound 101, 2-(6-chloro-4-(cyclopropylsulfonyl)-1H-indazol-1-yl)-N-(1-methyl-1H-pyrazol-3-yl)-3-(tetrahydro-2H-pyran-4-yl)propanamide]	
398 to 1260 nM	90 to 100	O=C(Nc1cnccn1)C(CC1CCOCC1)n1ncc2c(S(=O)(=O)C3CC3)cc(Cl)cc21 (stereo not shown) [Compound 102, 2-(6-chloro-4-(cyclopropylsulfonyl)-1H-indazol-1-yl)-N-(pyrazin-2-yl)-3-(tetrahydro-2H-pyran-4-yl)propanamide]	
1580 to 3160 nM	101 to 105	O=C(Nc1cnccn1)C(CC1CCOCC1)n1ncc2c(S(=O)(=O)C3CC3)cc(F)cc21 (stereo not shown) [Compound 103, 2-(4-(cyclopropylsulfonyl)-6-fluoro-1H-indazol-1-yl)-N-(pyrazin-2-yl)-3-(tetrahydro-2H-pyran-4-yl)propanamide]	
1580 to 3160 nM	90 to 100	Cn1ccc(NC(=O)C(CC2CCOCC2)n2ncc3c(S(=O)(=O)C4CC4)cc(F)cc32)n1 (stereo not shown) [Compound 104, 2-(4-(cyclopropylsulfonyl)-6-fluoro-1H-indazol-1-yl)-N-(1-methyl-1H-pyrazol-3-yl)-3-(tetrahydro-2H-pyran-4-yl)propanamide]	
398 to 1260 nM and ≤ 316 nM	≤ 90	Cn1ccc(NC(=O)[C@H](CC2CCOCC2)n2ncc3c(S(=O)(=O)C4CC4)cc(C#N)cc32)n1 [Compound 105, (S)-2-(6-cyano-4-(cyclopropylsulfonyl)-1H-indazol-1-yl)-N-(1-methyl-1H-pyrazol-3-yl)-3-(tetrahydro-2H-pyran-4-yl)propanamide]	
≥ 15800 nM	90 to 100	Cn1ccc(NC(=O)[C@@H](CC2CCOCC2)n2ncc3c(S(=O)(=O)C4CC4)cc(C#N)cc32)n1 [Compound 106, (R)-2-(6-cyano-4-(cyclopropylsulfonyl)-1H-indazol-1-yl)-N-(1-methyl-1H-pyrazol-3-yl)-3-(tetrahydro-2H-pyran-4-yl)propanamide]	
≤ 316 nM	101 to 105	COc1ccc2c(cnn2[C@@H](CC2CCOCC2)C(=O)Nc2ccn(C)n2)c1S(=O)(=O)C1CC1 [Compound 109, (S)-2-(4-(cyclopropylsulfonyl)-5-methoxy-1H-indazol-1-yl)-N-(1-methyl-1H-pyrazol-3-yl)-3-(tetrahydro-2H-pyran-4-yl)propanamide]	
≥ 15800 nM	106 to 110	COc1ccc2c(cnn2[C@H](CC2CCOCC2)C(=O)Nc2ccn(C)n2)c1S(=O)(=O)C1CC1 [Compound 110, (R)-2-(4-(cyclopropylsulfonyl)-5-methoxy-1H-indazol-1-yl)-N-(1-methyl-1H-pyrazol-3-yl)-3-(tetrahydro-2H-pyran-4-yl)propanamide]	
398 to 1260 nM	101 to 105	O=C1CC[C@H](C[C@@H](C(=O)Nc2ncc(Cl)s2)n2ncc3c(S(=O)(=O)C4CC4)cccc32)C1 [Compound 113, (S)-N-(5-chlorothiazol-2-yl)-2-(4-(cyclopropylsulfonyl)-1H-indazol-1-yl)-3-((R)-3-oxocyclopentyl)propanamide]	
